We go through 18 compounds from patent US10323018B2 (Millennium Pharmaceuticals, Inc., priority 2015, dated 2019).

The target in test [1] is hNAMPT protein (Homo sapiens (Human), UniProt P43490). Kind of test: NAMPT enzyme assay (TR-FRET/HTRF with BodiPY ligand). In kind it is binding. Conditions: for inhibition at 1 µM: NAMPT inhibition at compound concentration 1 μM, read-out: Percent Inhibition; for IC50: NAMPT inhibition, IC50 range class. The source says: As discussed above, the invention provides compounds that are useful as inhibitors of the enzyme NAMPT. The NAMPT inhibition of a compound of the invention can be measured using a variety of methods known in the art. For example, the ability of a compound of the invention to inhibit NAMPT enzyme activity can be measured using a homogeneous time resolved fluorescence (HTRF) assay using hNAMPT protein and anti 6His-Tb in buffer treated with a compound of the invention (or control e.g., DMSO) and BodiPY ligand. The TR-FRET signal can be measured using a high throughput microplate reader (e.g., Pherastar). Excitation can be carried out at 320 nm. The percent inhibition value at a single concentration of compound of the invention can be calculated relative to a control treated sample. A concentration response curve can be generated for each compound of the invention and the curve fitted to generate an IC50 value. […] To measure the inhibition of NAMPT activity hNAMPT protein stock and anti 6His-Tb (Cisbio; Cat. No. […]TLB) is diluted to 3× final concentration with assay buffer (50 mM Tris-HCl (pH 7.5), 1 mM DTT, 100 mM NaCl, 10 mM MgCl2, 0.005% Tween 20). To this solution is added a test compound or vehicle control (DMSO) and BodiPY ligand (structure below). The plate is shaken for 1-2 min sealed and incubated for 1 h at rt in the dark. The TR-FRET signal is measured using BMG Pherastar (Lanthascreen protocol on BMG Pherastar). Excitation was carried out at 320 nm, and the ratio of emission of BodiPY (520 nm) to terbium (486 nm) was determined. Concentration response curves are generated by calculating the excitation increase in test compound-treated samples relative to DMSO-treated controls. For the assay method described above, test compound percent inhibition values at a single concentration are calculated relative to control (DMSO) treated samples. Compound concentration response curves are fitted to generate IC50 values from those curves. One skilled in the art will appreciate that these values generated either as percentage inhibition at a single concentration or IC50 values are subject to experimental variation.
Sequence of hNAMPT protein (P43490 whole entry): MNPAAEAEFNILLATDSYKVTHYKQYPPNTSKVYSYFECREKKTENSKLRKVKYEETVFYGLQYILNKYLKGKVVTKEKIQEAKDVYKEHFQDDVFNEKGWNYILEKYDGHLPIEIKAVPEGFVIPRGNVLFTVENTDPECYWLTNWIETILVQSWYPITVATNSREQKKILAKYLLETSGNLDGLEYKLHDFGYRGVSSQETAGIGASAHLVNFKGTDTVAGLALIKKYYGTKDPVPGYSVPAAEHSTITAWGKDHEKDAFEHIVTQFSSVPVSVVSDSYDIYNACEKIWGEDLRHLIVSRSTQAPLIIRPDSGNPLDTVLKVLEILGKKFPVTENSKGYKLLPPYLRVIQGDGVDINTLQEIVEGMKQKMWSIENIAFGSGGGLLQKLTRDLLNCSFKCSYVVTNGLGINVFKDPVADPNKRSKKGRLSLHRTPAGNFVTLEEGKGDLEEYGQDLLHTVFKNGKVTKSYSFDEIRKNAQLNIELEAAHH
For orientation: TR-FRET usually uses a lanthanide donor and a delayed reading to cut background.

Test [2] concerns PC3 cells. Kind of test: PC3 growth inhibition (Cell-titer glo, 72 hours). In kind it is cell-based. Conditions: Homo sapiens, PC-3, 72 h, read-out: Percent Viability, PC3 cells, compound concentration 1.667 μM, 72 hours. The protocol:
The invention also provides compounds that inhibit cell growth. The ability of a compound of the invention to inhibit the growth of cells can be measured using a variety of methods known in the art. For example, the ability of a compound of the invention to inhibit the growth of PC3 cells can be measured. PC3 cells can be plated and incubated overnight under CO2. For each measurement, a compound of the invention (or vehicle e.g., DMSO) can be diluted with AIM serum free medium and added to the cell plate. The cell plate can then be incubated for 72 h under CO2. Cell-titer glo solution can be added and the plates can be incubated protected from light and the amount of luminescences can be measured. Concentration response curves can be generated by calculating the luminescence increase in test compound treated samples relative to DMSO-treated controls. Percentage remaining viability values at a single concentration can be measured. Growth inhibition (GI50) or cell viability (LD50) values can be determined from thoses curves. In one embodiment, compounds of the invention have a percent viability in PC3 line @ 1.667 uM of <1%. In one embodiment, compounds of the invention have a percent viability in PC3 line @ 1.667 uM of <2%. In one embodiment, compounds of the invention have a percent viability in PC3 line @ 1.667 uM of <3%. In one embodiment, compounds of the invention have a percent viability in PC3 line @ 1.667 uM of <4%. In one embodiment, compounds of the invention have a percent viability in PC3 line @ 1.667 uM of <5%. In one embodiment, compounds of the invention have a percent viability in PC3 line @ 1.667 uM of <10%. In one embodiment, compounds of the invention have a percent viability in PC3 line @ 1.667 uM of <50%.
To measure PC3 growth inhibition, PC3 cells that were maintained in RPMI1640 growth medium (Life Technologies; Cat. No. 11875) at 37° C. under 5% CO2 are trypsinized and diluted at a density of 8×10^4 cells/ml, 25 ul per well of cells and plated in 384-well black tissue culture plate. The cells are incubated overnight at 37° C. under 5% CO2. For each measurement, a test compound or vehicle DMSO control is diluted with AIM serum free medium and added to the cell plate. The cell plate is incubated for 72 hours at 37° C. under 5% CO2. 25 μl Cell-titer glo solution (Promega; Cat. No. G8462) is added and the cell plates are incubated for 10 minutes protected from light. The luminescence is measured. Concentration response curves are generated by calculating the luminescence increase in test compound-treated samples relative to DMSO-treated controls. Percentage remaining viability values at a single concentration, growth inhibition (GI50) or cell viability (LD50) values are determined from those curves. One skilled in the art will appreciate that these values are subject to experimental variation.

As usually defined, the inhibition is how much of the control response was suppressed. A word on the IC50: it is the concentration that inhibits the measured activity by half. Low values mean greater potency, high ones weaker potency.

Take `CCOc1cc(-c2ccc(OC)nc2)nc2cc(C(=O)NCc3nc4cnccc4[nH]3)ccc12` [Compound I-193, 4-ethoxy-N-(1H-imidazo[4,5-c]pyridin-2-ylmethyl)-2-(6-methoxypyridin-3-yl)quinoline-7-carboxamide]: in test [1], the inhibition at 1 µM is above 99% and the IC50 was below 0.01 µM. In addition, the viability at 1.667 µM in test [2] is 3%.
Consider `CCCc1nc(-c2ccc(Cl)cc2)nc2cc(C(=O)NCC3CC3c3ncc[nH]3)ccc12` (racemic) [Compound I-59, 2-(4-chlorophenyl)-N-{[trans-(1,2)-2-(1H-imidazol-2-yl)cyclopropyl]methyl}-4-propylquinazoline-7-carboxamide], for which, in test [1], the inhibition at 1 µM came out at 90% and the IC50 lay within 0.05 to 0.1 µM. Moreover, in test [2], the viability at 1.667 µM was determined as 2%.
Regarding `CCOc1cc(-c2ccnc(C)c2)nc2cc(C(=O)NCc3nc4cnccc4[nH]3)ccc12` [Compound I-99, 4-ethoxy-N-(1H-imidazo[4,5-c]pyridin-2-ylmethyl)-2-(2-methylpyridin-4-yl)quinoline-7-carboxamide], in test [1], the inhibition at 1 µM is above 99% and the IC50 was below 0.01 µM. Besides, in test [2], the viability at 1.667 µM amounted to 2%.
Regarding `COCCOc1nc(-c2ccc(F)cc2)nc2cc(C(=O)NCCCc3ncc[nH]3)ccc12` [Compound I-37, 2-(4-fluorophenyl)-N-[3-(1H-imidazol-2-yl)propyl]-4-(2-methoxyethoxy)quinazoline-7-carboxamide], in test [1], the inhibition at 1 µM is above 99% and the IC50 was below 0.01 µM. The viability at 1.667 µM in test [2] came out at 2%.
Regarding `CC(C)Oc1nc(-c2ccc(F)cc2)nc2cc(C(=O)NCCCc3ncc[nH]3)ccc12` [Compound I-36, 2-(4-fluorophenyl)-N-[3-(1H-imidazol-2-yl)propyl]-4-isopropoxyquinazoline-7-carboxamide], in test [1], the inhibition at 1 µM was above 99% and the IC50 was below 0.01 µM. Moreover, the viability at 1.667 µM in test [2] stood at 2%.
`CCOc1nc(-c2ccc(F)cc2)nc2cc(C(=O)NCCCc3ncc[nH]3)ccc12` [Compound I-32, 4-ethoxy-2-(4-fluorophenyl)-N-[3-(1H-imidazol-2-yl)propyl]quinazoline-7-carboxamide]: in test [1], the inhibition at 1 µM is above 99% and the IC50 was below 0.01 µM. Further, the viability at 1.667 µM in test [2] was determined as 2%.
Regarding `CCOc1cc(-c2ccc(F)cc2)nc2cc(C(=O)NCc3cc4[nH]ncc4s3)ccc12` [Compound I-80, 4-ethoxy-2-(4-fluorophenyl)-N-(1H-thieno[3,2-c]pyrazol-5-ylmethyl)quinoline-7-carboxamide], in test [1], the inhibition at 1 µM stood at 98% and the IC50 was below 0.01 µM. Besides, the viability at 1.667 µM in test [2] was determined as 2%.
As for `COCCOc1cc(-c2ccnc(OC)c2)nc2cc(C(=O)NCc3ccn4ncnc4c3)ccc12` [Compound I-67], in test [1], the inhibition at 1 µM turned out to be 85%. For the same compound, the viability at 1.667 µM in test [2] is 3%.
In the case of `CCOc1cc(-c2ccc(F)cc2)nc2cc(C(=O)NCc3ccc4ncnn4c3)ccc12` [Compound I-84, 4-ethoxy-2-(4-fluorophenyl)-N-([1,2,4]triazolo[1,5-a]pyridin-6-ylmethyl)quinoline-7-carboxamide], in test [1], the inhibition at 1 µM came out at 99% and the IC50 was below 0.01 µM. Moreover, the viability at 1.667 µM in test [2] amounted to 1%.
Taken in the same sequence, the figures for `CCOc1cc(-c2cc(OC)ncc2F)nc2cc(C(=O)NCc3nc4cnccc4[nH]3)ccc12` [Compound I-188, 4-ethoxy-2-(5-fluoro-2-methoxypyridin-4-yl)-N-(1H-imidazo[4,5-c]pyridin-2-ylmethyl)quinoline-7-carboxamide] were 99%, below 0.01 µM and 3%.
On to `CCCc1nc(-c2ccc(Cl)cc2)nc2cc(C(=O)NCc3ccc4nccn4c3)ccc12` [Compound I-8, 2-(4-chlorophenyl)-N-(imidazo[1,2-a]pyridin-6-ylmethyl)-4-propylquinazoline-7-carboxamide], for which, in test [1], the inhibition at 1 µM was determined as 98% and the IC50 is below 0.01 µM. Moreover, in test [2], the viability at 1.667 µM is 1%.
For `CCOc1cc(-c2ccc(F)cc2)nc2cc(C(=O)NCCc3c[nH]nc3C)ccc12` [Compound I-132, 4-ethoxy-2-(4-fluorophenyl)-N-[2-(3-methyl-1H-pyrazol-4-yl)ethyl]quinoline-7-carboxamide], in test [1], the inhibition at 1 µM is above 99% and the IC50 was below 0.01 µM. For the same compound, in test [2], the viability at 1.667 µM came out at 3%.
The corresponding values for `CCOc1cc(-c2ccc(F)cc2)nc2cc(C(=O)NCCCc3cc[nH]n3)ccc12` [Compound I-204, 4-ethoxy-2-(4-fluorophenyl)-N-[3-(1H-pyrazol-3-yl)propyl]quinoline-7-carboxamide] are 100%, below 0.01 µM and 2%.
As for `O=C(NCCCc1ncc[nH]1)c1ccc2c(C3CC3)nc(-c3ccc(Cl)cc3)nc2c1` [Compound I-31, 2-(4-chlorophenyl)-4-cyclopropyl-N-[3-(1H-imidazol-2-yl)propyl]quinazoline-7-carboxamide], in test [1], the inhibition at 1 µM was found to be 97% and the IC50 lay in the range of 0.01 to 0.05 µM. Also, in test [2], the viability at 1.667 µM was 1%.
In the case of `CCOc1cc(-c2ccc(OC)nc2)nc2cc(C(=O)NCCc3nc[nH]n3)ccc12` [Compound I-186, 4-ethoxy-2-(6-methoxypyridin-3-yl)-N-[2-(1H-1,2,4-triazol-3-yl)ethyl]quinoline-7-carboxamide], in test [1], the inhibition at 1 µM amounted to 99% and the IC50 was in the range of 0.01 to 0.05 µM. In test [2], the viability at 1.667 µM was 4%.
In the case of `CCOc1cc(-c2ccc(C)s2)nc2cc(C(=O)NCCCc3nnc[nH]3)ccc12` [Compound I-223, 4-ethoxy-2-(5-methyl-2-thienyl)-N-[3-(4H-1,2,4-triazol-3-yl)propyl]quinoline-7-carboxamide], in test [1], the inhibition at 1 µM is above 99% and the IC50 was 0.01 to 0.05 µM. Also, the viability at 1.667 µM in test [2] stood at 3%.
Consider `CCOc1cc(-c2cc(F)ccc2OC)nc2cc(C(=O)NCCc3cnn[nH]3)ccc12` [Compound I-184, 4-ethoxy-2-(5-fluoro-2-methoxyphenyl)-N-[2-(1H-1,2,3-triazol-5-yl)ethyl]quinoline-7-carboxamide], for which, in test [1], the inhibition at 1 µM was determined as 91% and the IC50 was in the range of 0.05 to 0.1 µM. Further, in test [2], the viability at 1.667 µM came out at 6%.
For the compound `CCOc1cc(-c2ccc(F)cc2OC)nc2cc(C(=O)NCCc3c[nH]nc3C)ccc12` [Compound I-129, 4-ethoxy-2-(4-fluoro-2-methoxyphenyl)-N-[2-(3-methyl-1H-pyrazol-4-yl)ethyl]quinoline-7-carboxamide], in test [1], the inhibition at 1 µM is 96% and the IC50 was in the range of 0.01 to 0.05 µM. In test [2], the viability at 1.667 µM was determined as 2%.
